Assays:
[1] = system: human A375 melanoma cells; experiment: In vivo antitumor activity, A375 melanoma transplanted into BALB/c-nu/nu mice; conditions: hydrochloride salt form, 0.5 to 5 mg/kg, 2 week treatment
Text: Antitumor activity is expressed as T/C% (mean increase in tumor volumes of treated animals divided by the mean increase of tumor volumes of control animals multiplied by 100).
Aliquots of cancer cells (1×10^7), e.g. human A375 melanoma cells, are transplanted into BALB/c-nu/nu mice. When the tumors have reached ca. 10×10 mm in size, the animals are assigned randomly to four subgroups and the treatment with a compound of formula I is initiated. Animals are sacrificed after 2 week treatment, at which times tumors and tissues are harvested and prepared for morphological and molecular analysis. The size of the tumors is determined with a caliper.

[2] = system: mouse breast cancer cell line JygMC(A); experiment: In vitro antitumor activity: proliferation of synchronised mouse breast cancer cells; type: cell-based; conditions: hydrochloride salt form, Coulter counter and SRB colorimetric assay
Protocol: A mouse breast cancer cell line originally isolated from mammary carcinomas is used, e.g. JygMC(A). The cell number is adjusted to 5×10^5 for plating in fresh medium before the procedure. Cells are incubated with fresh medium containing 2.5 mM of thymidine without FCS for 12 h and then washed twice with PBS, followed by addition of fresh medium with 10% FCS and additionally incubated for another 12 h. Thereafter the cells are incubated with fresh medium containing 2.5 mM of thymidine without FCS for 12 h. To release the cells from the block, the cells are washed twice with PBS and replated in fresh medium with 10% FCS. After synchronisation the cells are incubated with or without various concentrations of a compound of formula I for 3, 6, 9, 12, 18 or 24 h. The cells are harvested after treatment with 0.2% EDTA, fixed with ice-cold 70% ethanol solution, hydrolyzed with 250 μg/ml of RNaseA (type 1-A: Sigma Chem. Co.) at 37° C. for 30 mn and stained with propidium iodide at […] for 20 mn. After the incubation period, the number of cells is determined both by counting cells in a Coulter counter and by the SRB colorimetric assay. Under these conditions an S1P agonist, e.g. Compound B in hydrochloride salt form, inhibits the proliferation of the tumor cells at concentrations ranging from 10^−12 to 10^−6 M.

[3] = system: S1P- or VEGF-induced growth of vascularized tissue around the chamber; experiment: Antiangiogenic activity, subcutaneous porous chamber (S1P or VEGF) in mice; type: in vivo; conditions: once a day for 4 days; Compound A orally 0.3, 3, 30 or 50 mg/kg; Compound C enantiomers i.v. 2.5 mg/kg
Protocol: Porous chambers containing (I) sphingosine-1-phosphate (5 μM/chamber) or (ii) human VEGF (1 μg/chamber) in 0.5 ml of 0.8% w/v agar (containing heparin, 20 U/ml) are implanted subcutaneously in the flank of mice. S1P or VEGF induces the growth of vascularized tissue around the chamber. This response is dose-dependent and can be quantified by measuring the weight and blood content of the tissue. Mice are treated once a day (i) orally with Compound A (0.3, 3, 30 or 50 mg/kg) or (ii) intravenously with the R enantiomer of Compound C (2.5 mg/kg) or (iii) intravenously with the S enantiomer of Compound C (2.5 mg/kg) or (iv) orally or intravenously with vehicle (5% glucose, 10 ml/kg), starting 4-6 hours before implantation of the chambers and continuing for 4 days. The animals are sacrificed for measurement of the vascularized tissues 24 h after the last dose. The weight and blood content of the vascularized tissues around the chamber is determined. Animals treated with Compound A or with the R or S enantiomer of Compound C show reduced weight and/or blood content of the vascularized tissues compared to animals treated with vehicle alone.

Row | Compound | tumor growth vs saline control [1] | concentrations at which the proliferation of the tumor cells is inhibited [2] | weight and/or blood content of the vascularized tissues compared to vehicle [3]
1 | NC(CO)(CO)CCc1ccc(C(=O)CCCCc2ccccc2)cc1 [Compound B, 2-amino-2-{2-[4-(1-oxo-5-phenylpentyl)phenyl]ethyl}propane-1,3-diol] | slows tumor growth | 10^−12 to 10^−6 M | –
2 | CCCCCCCOc1ccc(CCC(C)(N)CO)cc1 (stereo not drawn) [R enantiomer of Compound C, 2-amino-4-(4heptyloxyphenyl)-2-methyl-butanol] | – | – | reduced

Source: patent US20050215531A1, “Use of edg receptor binding agents in cancer” (priority 2002, published 2005)
